Results: patent US9277697B2, “Compositions and methods for anti-transpiration in plants” (Innovation Hammer, LLC, priority 2004, dated 2016)

What was measured:
[1] = system: weeds; experiment: Weed kill by tank-mixes of saccharides, herbicide and ammonium sulfate; type: in vivo; conditions: 1 lb/acre glyphosate; additive 1:1 methyl glucosides to organic ammonium sulfates
Source text: The inherent benefit of the reduction of productivity observed by surface coatings was exploited by utilizing their weakening effects as additives to enhance weed kill of pesticides. In sets of replicated trials, weeds were given tank-mixes with saccharides, herbicides, and ammonium sulfate fertilizer. Perhaps the most widely used herbicide, N-phosphonomethylglycine (PO(OH)2CH2.2NHCH2COOH), is commonly referred to as glyphosate, and is most abundantly found formulated as a water-soluble mono-isopropylamine (IPA) salt or sodium salt, hereinafter referred to as glyphosate, meant to include salts, thereof. The preferred formulation of the present invention is a blend of 4 lbs./acre to 5 lbs./acre glyphosate; 10 lbs./acre to 100 lbs./acre of 60% to 100% methyl glucosides in a 1:1 to 3:1 blend with ammonium sulfate; and with optional surfactant. After foliar application, inhibitory methods yielded approximately 50% to 85% improved response of weeds to herbicide and additives over positive controls. […] An additional benefit is the reversal of the weakening effect of treatments to plants that have been genetically engineered for herbicide resistance. After treatment with a tank mix of herbicide and Series 1 components, a Series 2 formulation of Ca^2+-chelators may be sprayed over a Series 1 treatment once the herbicide has killed its targeted weeds. […]

[2] = system: Cabbage; experiment: Growth promotion with iron-Mac formulations versus component controls; type: in vivo; conditions: 12 ppm iron-Mac, 12 ppm Fe—Na2EDTA, 50 mM (NH4)2SO4
Experimental: (§1) Dilute the mixture in an appropriate volume of water. Mix until the compounds are dissolved. Spray the resulting formulation on the plant foliage (e.g. New Guinea Impatiens) so that the foliage glistens. Allow a day for leaf uptake. The following results are of growth promotion using iron-Mac formulations of the invention versus conventionally cultured controls and with identical quantities of each of the components as separate controls.

[3] = system: Lantana; experiment: as above; type: in vivo; conditions: 12 ppm iron-Mac, 12 ppm Fe—Na2EDTA, 50 mM (NH4)2SO4
Experimental: as §1

[4] = system: Rice; experiment: as above; type: in vivo; conditions: 12 ppm iron-Mac, 12 ppm Fe—Na2EDTA, 50 mM (NH4)2SO4
Experimental: as §1

[5] = system: Rice, Lantana, Cabbage; experiment: Yield with iron-Mac formulations versus component controls, all plant types; type: in vivo; conditions: for all plant types; 12 ppm Fe—Na2EDTA, 50 mM (NH4)2SO4
Experimental: as §1

[6] = system: pectic cell; experiment: Penetration and integration of saccharides

Which lethal dose response [1] does the source give for `O=C(O)CNCP(=O)(O)O` [glyphosate, N-phosphonomethylglycine] here?
The lethal dose response was 100%.

Which “Result (growth promotion)” value [2] does the source give for Fe—Na2EDTA here?
The value was “phytotoxic”.

What about the “Result (growth promotion)” value [3] of the same compound?
Its value is “phytotoxic”.

What about the “Result (growth promotion)” value [4] of the same compound?
Its value is “phytotoxic”.

What about the yield reduction [5] of the same compound?
Its yield reduction is 5% reduction.

`CCCCCCCCCCCCCCO[C@@H]1O[C@H](CO)[C@@H](O[C@@H]2O[C@@H](CO)[C@H](O)[C@@H](O)[C@@H]2O)[C@H](O)[C@H]1O` (stereo in doubt) [tetradecylmaltoside] was tested. Which penetration and integration [6] did it give?
Its penetration and integration is “neither penetrate nor integrate”.

Which penetration and integration [6] does the source give for `CC(=O)OC[C@H]1OC(Oc2ccccc2)[C@H](OC(C)=O)[C@@H](OC(C)=O)[C@@H]1OC(C)=O` (some centres unmarked) [phenyltetraacetylglucoside] here?
The penetration and integration was “neither penetrate nor integrate”.

Which penetration and integration [6] does the source give for `CC(=O)OC[C@H]1OC(OC(C)=O)[C@H](OC(C)=O)[C@@H](OC(C)=O)[C@@H]1OC(C)=O` (some centres unmarked) [pentaace tylglucopyranose] here?
The penetration and integration was “neither penetrate nor integrate”.

`CC(=O)OC[C@H]1OC(OC(C)=O)[C@@H](OC(C)=O)[C@@H](OC(C)=O)[C@@H]1OC(C)=O` (some centres unmarked) [pentaacetylmanno-pyranose] was tested. Which penetration and integration [6] did it give?
Its penetration and integration is “neither penetrate nor integrate”.

`N.N.O=S(=O)(O)O` [(NH4)2SO4] was tested. Which “Result (growth promotion)” value [2] did it give?
The value was “retarded”.

What about the “Result (growth promotion)” value [3] of the same compound?
The value was “retarded”.

And the “Result (growth promotion)” value [4]?
Its value is “retarded”.

What about the yield reduction [5] of the same compound?
Its yield reduction is 5% reduction.

How did the penetration and integration [6] turn out when `CC(=O)OC[C@H]1OC(OC(C)=O)[C@H](OC(C)=O)[C@@H](OC(C)=O)[C@H]1OC(C)=O` (some centres unmarked) [pentaace tylgalactopyranose] was run?
The penetration and integration was “neither penetrate nor integrate”.
